Where two headings read alike, the source gives them in different places.
Assays:
hBCRP = molecular target: T1, hBCRP (Homo sapiens, UniProt Q9UNQ0); test: hBCRP-mediated efflux of lucifer yellow in hBCRP-MDCK cells; assay type: cell-based; details: for efflux of BCRP-mediated lucifer yellow: concentration range 0.3 to 30 µM; for inhibitory effect on BCRP activity: hBCRP-MDCK cells, co-incubation 0.3 to 30 µM
T1 construct: host or cells: MDCK
T1 sequence (Q9UNQ0 1-655): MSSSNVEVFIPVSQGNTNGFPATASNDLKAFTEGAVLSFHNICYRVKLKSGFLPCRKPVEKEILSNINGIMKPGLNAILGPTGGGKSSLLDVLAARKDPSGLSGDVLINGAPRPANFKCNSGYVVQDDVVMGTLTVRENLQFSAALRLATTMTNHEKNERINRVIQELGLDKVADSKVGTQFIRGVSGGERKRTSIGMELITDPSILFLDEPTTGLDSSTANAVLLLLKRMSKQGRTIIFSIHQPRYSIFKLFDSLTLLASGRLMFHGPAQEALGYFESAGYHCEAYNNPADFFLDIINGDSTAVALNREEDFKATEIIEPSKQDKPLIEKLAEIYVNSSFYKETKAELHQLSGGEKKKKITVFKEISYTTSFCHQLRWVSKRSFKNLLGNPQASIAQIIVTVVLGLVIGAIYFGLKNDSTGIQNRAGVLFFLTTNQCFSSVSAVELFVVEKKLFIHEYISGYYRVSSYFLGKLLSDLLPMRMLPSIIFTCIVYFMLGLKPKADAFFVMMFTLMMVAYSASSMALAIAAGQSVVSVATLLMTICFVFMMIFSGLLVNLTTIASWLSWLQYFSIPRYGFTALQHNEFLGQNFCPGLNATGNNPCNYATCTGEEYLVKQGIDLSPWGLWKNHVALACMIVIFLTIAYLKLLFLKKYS
Experimental: (§1) Stably expressing cell lines of hOAT1-MDCK, hOAT3-MDCK, hOCT2-S2, hMDR1-MDCK, hBCRP-MDCK, and their mock cells were obtained from Japan Fuji Biomedical Co., Ltd. The cells were maintained in DMEM (Sigma) supplemented with 10% FCS, 1% non-essential amino acids (Sigma), and 2% L-glutamine. The medium for the Transwell® plates (Corning Costar, Cambridge, MA, United States) was supplemented with 0.1% gentamicin. Membrane filters were placed in a 12 mm well with 1.5 and 0.5 ml of culture medium in the basolateral and apical compartments, respectively. Cells were cultured at 37°C in an atmosphere of 5% CO2.
(§2) Briefly, the hOAT1-MDCK, hOAT3-MDCK, and hOCT2-S2 cells were trypsinized and suspended in the culture medium to provide a density of 1.5 × 10^5 cells/ml. […] After cultivation for 7 days, cells were washed twice and equilibrated for 30 min at 37°C with the pre-warmed HBSS buffer. […] The content of DMSO was below 1% and constant in all inhibition experiments. All experiments were performed in triplicate. The cell lysate and 3.0 ml of aquasol-2 scintillation fluid were put into a scintillation flask. […] IC50 values were determined by employing GraphPad Prism 9.

[1] = not given; remark: listed apart in the source
hOAT1 = molecular target: T2, hOAT1 (Homo sapiens, UniProt Q4U2R8); test: Inhibition of hOAT1-mediated uptake of 14C-PAH in hOAT1-MDCK cells; assay type: cell-based
T2 construct: host or cells: MDCK
T2 sequence (Q4U2R8 1-563): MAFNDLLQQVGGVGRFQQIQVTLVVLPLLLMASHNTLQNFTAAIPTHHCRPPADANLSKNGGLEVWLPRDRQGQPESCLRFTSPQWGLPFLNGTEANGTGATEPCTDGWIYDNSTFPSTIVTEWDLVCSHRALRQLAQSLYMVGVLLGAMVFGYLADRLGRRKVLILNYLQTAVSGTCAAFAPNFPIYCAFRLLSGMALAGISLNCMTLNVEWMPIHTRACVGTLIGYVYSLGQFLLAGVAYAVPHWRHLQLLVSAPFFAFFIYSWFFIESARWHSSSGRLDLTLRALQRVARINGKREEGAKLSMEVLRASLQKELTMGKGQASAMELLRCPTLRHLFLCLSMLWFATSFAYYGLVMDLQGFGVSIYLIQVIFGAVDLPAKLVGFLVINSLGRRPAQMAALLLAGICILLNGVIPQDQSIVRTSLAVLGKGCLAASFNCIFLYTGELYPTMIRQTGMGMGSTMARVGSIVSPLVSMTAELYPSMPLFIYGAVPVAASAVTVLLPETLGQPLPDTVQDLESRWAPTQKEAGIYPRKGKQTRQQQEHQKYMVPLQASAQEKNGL
Experimental: as §1, §2

in vivo = details: male, Sprague-Dawley, rat, po, 0.72 g/kg; for Cmax: C max; for Vd/F: V z/F; for Tmax: t max, median (range); for k el: k e; for half-life: t 1/2, plasma PK-marker
hMDR1 = molecular target: T3, hMDR1 (Homo sapiens, UniProt P08183); test: hMDR1-mediated efflux of rhodamine 123 in hMDR1-MDCK cells; assay type: cell-based; details: for efflux of MDR1-mediated rhodamine 123: concentration range 0.3 to 30 µM; for inhibitory effect on MDR1 activity: hMDR1-MDCK cells, co-incubation 0.3 to 30 µM
T3 construct: host or cells: MDCK
T3 sequence (P08183 whole entry): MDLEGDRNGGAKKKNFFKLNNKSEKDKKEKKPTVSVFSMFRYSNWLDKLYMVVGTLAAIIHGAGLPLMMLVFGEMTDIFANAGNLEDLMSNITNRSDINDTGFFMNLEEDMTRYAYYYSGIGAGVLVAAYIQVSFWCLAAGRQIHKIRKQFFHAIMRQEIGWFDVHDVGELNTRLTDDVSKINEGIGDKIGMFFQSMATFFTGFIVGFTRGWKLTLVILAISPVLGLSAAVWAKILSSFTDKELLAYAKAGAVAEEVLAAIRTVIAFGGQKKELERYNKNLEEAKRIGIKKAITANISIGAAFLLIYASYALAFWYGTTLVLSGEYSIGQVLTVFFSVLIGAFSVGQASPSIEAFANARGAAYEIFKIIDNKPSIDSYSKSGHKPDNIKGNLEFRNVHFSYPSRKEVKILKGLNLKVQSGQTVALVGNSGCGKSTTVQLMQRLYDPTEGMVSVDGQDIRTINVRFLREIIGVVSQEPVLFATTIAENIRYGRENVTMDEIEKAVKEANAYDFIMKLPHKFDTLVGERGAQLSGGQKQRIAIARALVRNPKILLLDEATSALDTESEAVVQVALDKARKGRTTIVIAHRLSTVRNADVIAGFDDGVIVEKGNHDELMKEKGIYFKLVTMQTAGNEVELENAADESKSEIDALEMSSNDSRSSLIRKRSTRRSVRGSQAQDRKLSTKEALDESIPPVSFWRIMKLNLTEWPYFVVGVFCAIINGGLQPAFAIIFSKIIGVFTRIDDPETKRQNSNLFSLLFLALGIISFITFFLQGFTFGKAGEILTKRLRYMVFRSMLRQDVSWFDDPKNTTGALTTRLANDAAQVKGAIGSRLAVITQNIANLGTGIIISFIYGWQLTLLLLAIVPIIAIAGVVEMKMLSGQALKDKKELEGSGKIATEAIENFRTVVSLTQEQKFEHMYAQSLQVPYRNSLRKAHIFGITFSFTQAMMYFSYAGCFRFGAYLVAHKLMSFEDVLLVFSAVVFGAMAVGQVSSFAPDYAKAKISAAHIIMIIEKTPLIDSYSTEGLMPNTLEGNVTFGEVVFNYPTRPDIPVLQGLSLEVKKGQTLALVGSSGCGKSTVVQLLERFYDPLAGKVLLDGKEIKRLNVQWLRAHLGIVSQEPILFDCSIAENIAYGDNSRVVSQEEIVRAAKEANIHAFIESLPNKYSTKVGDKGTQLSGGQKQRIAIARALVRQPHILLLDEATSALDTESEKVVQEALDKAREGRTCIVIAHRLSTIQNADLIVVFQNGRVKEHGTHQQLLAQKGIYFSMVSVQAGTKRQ

[2] = Tissue distribution-based herb-drug interaction study in rats (CIP i.v., PCE i.g.); assay type: in vivo, Sprague-Dawley rats
clinical = details: male, human; for Cmax: C max; for Vd/F: V z/F; for k el: k e
[3] = plasma, plasma PK-marker, rats, intragastric PCE 0.72 g/kg + CIP […]
[4] = plasma, plasma PK-marker, rats, intragastric PCE 0.72 g/kg alone
[5] = plasma, oral, plasma PK-marker, human subjects, multiple doses of PCE (8 g, TID, seven days) + CIP 0.5 g
[6] = plasma, oral, plasma PK-marker, human subjects, single dose of PCE (8 g) + CIP 0.5 g
[7] = plasma, po, plasma PK-marker, human subjects, oral single dose of PCE (8 g) alone
[8] = plasma PK-marker, human subjects, oral single dose of PCE (8 g) alone

For `O=C(O)c1cc(O)c(O)c(O)c1` [GA, Gallic acid], which “t 1/2” value (male, Sprague-Dawley, rat, in vivo, po, 0.72 g/kg) is on record?
The value was 157 ± 107 min.

And the CL/F (rat, in vivo, po, 0.72 g/kg)?
Its CL/F is 2.06 ± 0.85 L/h.

And the “efflux of BCRP-mediated lucifer yellow” value (hBCRP)?
The value was “concentration-dependent increase”.

What about the “inhibitory effect on BCRP activity” value (hBCRP) of the same compound?
The value was “no inhibitory effect”.

And the CL/F ([1]; human, in vivo, po)?
Its CL/F is 2.10 ± 0.64 L/h.

What about the IC50 (hOAT1) of the same compound?
Its IC50 is 8.01 µM.

What about the AUC(0-t) (in vivo; in vivo) of the same compound?
Its AUC(0-t) is 465 ± 171 ng·h/mL.

And the AUC(0-inf) (in vivo; in vivo)?
The AUC(0-inf) was 483 ± 169 ng·h/mL.

What about the Cmax (in vivo; in vivo) of the same compound?
The Cmax was 134 ± 36.4 ng/mL.

And the Vd/F (in vivo; in vivo)?
Its Vd/F is 8.93 ± 9.83 L.

And the Tmax (in vivo; in vivo, plasma PK-marker, rats, intragastric PCE 0.72 g/kg alone)?
The Tmax was 90 min.

And the k el (in vivo; [3])?
Its k el is 0.000122 s⁻¹.

And the k el (in vivo; [4])?
Its k el is 9.72e-05 s⁻¹.

What about the “efflux of MDR1-mediated rhodamine 123” value (hMDR1) of the same compound?
The value was “concentration-dependent increase”.

And the “inhibitory effect on MDR1 activity” value (hMDR1)?
Its value is “no inhibitory effect”.

What about the “order of C max in tissues” value ([2]; CIP + PCE group (PK-marker)) of the same compound?
Its value is “SVG > prostate > kidney > lung > plasma”.

And the “order of C max in tissues” value ([2]; PCE group)?
The value was “SVG > prostate > kidney > plasma > testis”.

And the “order of AUC 0-t in tissues” value ([2]; intragastric PCE in the absence and presence of CIP)?
The value was “SVG > prostate > kidney > testis > plasma”.

And the “change of C max by CIP” value ([2]; kidney and heart, p < 0.05)?
The value was “decreased”.

What about the Tmax (clinical; in vivo, po) of the same compound?
Its Tmax is 52.8 min.

What about the AUC(0-t) (clinical; in vivo, po) of the same compound?
Its AUC(0-t) is 242 ± 70 ng·h/mL.

What about the AUC(0-inf) (clinical; in vivo, po) of the same compound?
Its AUC(0-inf) is 248 ± 67 ng·h/mL.

And the Cmax (clinical; in vivo, po)?
Its Cmax is 130 ± 32.7 ng/mL.

What about the Vd/F (clinical; in vivo, po) of the same compound?
The Vd/F was 322 ± 295 L.

What about the half-life (clinical; in vivo, po, t 1/2) of the same compound?
Its half-life is 98.4 ± 55.2 min.

And the k el (clinical; [5])?
Its k el is 0.000117 s⁻¹.

And the k el (clinical; [6])?
The k el was 0.000131 s⁻¹.

What about the k el (clinical; [7]) of the same compound?
Its k el is 0.000142 s⁻¹.

With `O=C(O)c1ccc(O)c(O)c1` [PCA, protocatechuic acid] as the compound, how does the CL/F (plasma PK-marker, rats, intragastric PCE 0.72 g/kg + CIP […]) read?
The CL/F was 6.67 ± 1.54 L/h.

What about the CL/F (plasma PK-marker, rats, intragastric PCE 0.72 g/kg alone) of the same compound?
The CL/F was 6.72 ± 2.19 L/h.

What about the “efflux of BCRP-mediated lucifer yellow” value (hBCRP) of the same compound?
Its value is “concentration-dependent increase”.

And the “inhibitory effect on BCRP activity” value (hBCRP)?
Its value is “no inhibitory effect”.

What about the CL/F ([1]; plasma PK-marker, human subjects, multiple doses of PCE (8 g, TID, seven days) + CIP 0.5 g) of the same compound?
The CL/F was 5.78 ± 1.57 L/h.

And the C max [1, 8]?
Its C max is 6.07 ± 1.48 ng/mL.

What about the CL/F [1, 8] of the same compound?
Its CL/F is 5.64 ± 1.45 L/h.

What about the CL/F ([1]; plasma PK-marker, human subjects, single dose of PCE (8 g) + CIP 0.5 g) of the same compound?
Its CL/F is 4.26 ± 0.91 L/h.

And the IC50 (hOAT1; hOAT1-MDCK cells, 14C-PAH 5 µM)?
The IC50 was 29.7 µM.

And the AUC(0-t) (in vivo; [3])?
The AUC(0-t) was 6.37 ± 1.18 ng·h/mL.

And the AUC(0-t) (in vivo; [4])?
The AUC(0-t) was 6.72 ± 2.39 ng·h/mL.

And the AUC(0-inf) (in vivo; [3])?
The AUC(0-inf) was 7.04 ± 1.55 ng·h/mL.

And the AUC(0-inf) (in vivo; [4])?
Its AUC(0-inf) is 7.32 ± 2.39 ng·h/mL.

And the Cmax (in vivo; [3])?
The Cmax was 6.69 ± 1.87 ng/mL.

And the Cmax (in vivo; [4])?
Its Cmax is 5.08 ± 1.82 ng/mL.

What about the Vd/F (in vivo; [3]) of the same compound?
The Vd/F was 6.87 ± 2.54 L.

And the Vd/F (in vivo; [4])?
The Vd/F was 6.5 ± 3.16 L.

What about the k el (in vivo; [3]) of the same compound?
Its k el is 0.000306 s⁻¹.

And the k el (in vivo; [4])?
The k el was 0.000308 s⁻¹.

And the half-life (in vivo; plasma, rats, intragastric PCE 0.72 g/kg + CIP […])?
Its half-life is 45.6 ± 25.8 min.

What about the half-life (in vivo; plasma, rats, intragastric PCE 0.72 g/kg alone) of the same compound?
The half-life was 40.8 ± 12.6 min.

And the Tmax (in vivo; [3])?
Its Tmax is 30 min.

And the Tmax (in vivo; [4])?
The Tmax was 30 min.

And the “efflux of MDR1-mediated rhodamine 123” value (hMDR1)?
The value was “concentration-dependent increase”.

What about the “inhibitory effect on MDR1 activity” value (hMDR1) of the same compound?
The value was “no inhibitory effect”.

And the “order of both AUC 0-t and C max in tissues” value ([2]; CIP + PCE group)?
The value was “prostate > SVG > kidney > testis > plasma”.

And the “order of both AUC 0-t and C max in tissues” value ([2]; PCE group)?
The value was “SVG > kidney > prostate > testis > spleen”.

What about the “change of K p by CIP” value ([2]; each tissue, p > 0.05) of the same compound?
The value was “did not significantly alter”.

And the “change of AUC 0-t by CIP” value ([2]; kidney, p < 0.05)?
The value was “decreased”.

What about the “change of C max by CIP” value ([2]; prostate, p < 0.05) of the same compound?
The value was “significantly increased”.

What about the AUC(0-t) (clinical; [5]) of the same compound?
The AUC(0-t) was 3.03 ± 0.9 ng·h/mL.

And the AUC(0-t) (clinical; [6])?
Its AUC(0-t) is 3.68 ± 1.15 ng·h/mL.

What about the AUC(0-inf) (clinical; [5]) of the same compound?
The AUC(0-inf) was 3.35 ± 0.99 ng·h/mL.

What about the AUC(0-inf) (clinical; [6]) of the same compound?
The AUC(0-inf) was 4.4 ± 0.93 ng·h/mL.

And the Cmax (clinical; [5])?
Its Cmax is 5.88 ± 1.66 ng/mL.

And the Cmax (clinical; [6])?
Its Cmax is 6.44 ± 2.57 ng/mL.

And the Vd/F (clinical; [5])?
The Vd/F was 150 ± 54.4 L.

And the Vd/F (clinical; [6])?
The Vd/F was 149 ± 65.6 L.

And the k el (clinical; [5])?
The k el was 0.000697 s⁻¹.

What about the k el (clinical; [6]) of the same compound?
Its k el is 0.000569 s⁻¹.

And the half-life (clinical; plasma, oral, t 1/2, plasma PK-marker, human subjects, multiple doses of PCE (8 g, TID, seven days) + CIP 0.5 g)?
Its half-life is 18.6 ± 8.4 min.

What about the half-life (clinical; plasma, oral, t 1/2, plasma PK-marker, human subjects, single dose of PCE (8 g) + CIP 0.5 g) of the same compound?
The half-life was 25.2 ± 11.4 min.

And the Tmax (clinical; plasma, po)?
Its Tmax is 19.8 min.

And the AUC(0-t) (clinical; [7])?
The AUC(0-t) was 2.84 ± 0.72 ng·h/mL.

And the AUC(0-inf) (clinical; [7])?
The AUC(0-inf) was 3.39 ± 0.94 ng·h/mL.

And the Vd/F (clinical; [7])?
The Vd/F was 148 ± 23.9 L.

What about the k el (clinical; [7]) of the same compound?
Its k el is 0.000656 s⁻¹.

What about the half-life (clinical; plasma, po, t 1/2, plasma PK-marker, human subjects, oral single dose of PCE (8 g) alone) of the same compound?
The half-life was 19.2 ± 6.6 min.

Source: article PMC9640990 (Frontiers in Pharmacology, 2022)
